Laboratory results reported in patent US20200129523A1, “SHIP INHIBITION TO INDUCE EXPRESSION OF GRANULOCYTE COLONY STIMULATING FACTOR IN A SUBJECT” (THE RESEARCH FOUNDATION FOR THE STATE UNIVERSITY OF NEW YORK, priority 2014, published 2020).

Assays:
[1] = tested on: HSC compartment; assay: Flow cytometric quantitation of hematopoietic stem/progenitor populations and cellularity in bone marrow of treated mice; type: in vivo, C57BL/6NTac mice
Protocol: HSC phenotype, cell-cycle progression, G-CSF neutralization, and CXCR4 MFI determination by FACS analysis was performed on whole bone marrow (WBM) cells harvested from a tibia and femur pair obtained from SHIPi and vehicle treated 8-12 week old male C57BL/6NTac mice (Taconic). Generation of the CD45.1×CD45.2 strain utilized in the CRU assay were obtained by intercrossing C57BL6/J (CD45.2) and B6.SJL (CD45.1), as previously described.^5 The SUNY Upstate Medical University Committee for Humane Use of Animals approved all animal experiments.
In vivo administration of 3AC was previously described.^14 Briefly, 3AC is resuspended as an emulsion in 0.3% Klucel/H20. Mice were treated via intraperitoneal injection every 24 hrs for 5 days at a final concentration of 26.5 mg/kg. Analysis and transplants were performed on day 6. The 3AC derivative K118 (Soluble SHIPi) was suspended in pure H2O and heated at 100° C. for ˜15 min to allow the compound to enter solution. The delivery method was the same as with 3AC, however, the mice were treated for 5 days at a final concentration of 10 mg/kg. Vehicle cohorts for 3AC were treated with 0.3% Klucel/H20 and K118 were treated with pure H2O.
Cell isolation was performed according to method detailed in Hazen et al.^6 Briefly, WBM was flushed from both femurs and tibias per mouse with a 25-gauge needle, red blood cell lysed (eBioscience), and resuspended in staining media comprised of Hanks Buffered Saline Solution (HBSS), 2% heat inactivated fetal bovine serum (FBS), and 10 mM HEPES (Sigma). The cells harvested for the CRU assay were flushed, red blood cell lysed, washed, and resuspended in sterile phosphate buffered saline (PBS). Peripheral blood mononuclear cells (PBMC) were collected via submandibular bleed in EDTA Micorvette tubes (SARSTEDT).
All antibodies were from BD Biosciences or eBioscience. All WBM, PBMC and BM derived MSC cell populations were Fc blocked on ice for 10 min prior to antibody staining. Global reconstitution was determined by staining PBMC with CD45.1-PeCy7 and CD45.2-APC. Multi-lineage repopulation was determined by staining PBMC with CD3-FITC (145-2C11), CD19-PerCP5.5 (1D3), Mac1-PE (M1/70), Gr1-Alexa700 (RB6-8C5) and NK1.1-APC-Cy7 (PK136). The Lin−cKit+Sca1+CD34−Flk2− (LSKF34−) phenotype was utilized to determine frequency of LT-HSC, ST-HSC, and MPP; the stain was comprised of Lin-PerCP 5.5, cKit-APC (2B8), Sca1-PeCy7 (D7), CD34-FITC (RAM34), Flk2-PE (A2F10). LSKF-CXCR4 stain was used to determine surface expression of the homing marker CXCR4. All cells were washed twice with staining media, resuspended in staining media plus DAPI for dead cell exclusion, and then analyzed on a flow cytometer LSRII (BD Biosciences). All flow cytometry data was analyzed using FlowJo (9.4.3) software.

[2] = tested on: LT-HSC; assay: Cell cycle analysis of BM LT-HSC (Hoechst / Pyronin Y); type: in vivo, C57BL/6NTac mice; settings: 3AC 26.5 mg/kg i.p. 5 days, vs vehicle
Protocol: WBM cells were stained with LSKCD34 and fixed in BD Cytofix/Cytoperm buffer for 30 minutes on ice. Fixed cells were stained with 10 μM Hoechst 33342 (HO; Sigma-Aldrich) for 45 min at 37° C. The cells were then incubated with 5 μM Pyronin Y (PY; Sigma-Aldrich) in HBSS medium with 2% FBS in the presence of 50 μM verapamil (Sigma-Aldrich) for 30 minutes at 37° C., washed, and immediately analyzed by UV laser-equipped BD LSRII analyzer.

[3] = tested on: HSC; assay: CRU assay (competitive repopulating units), primary and secondary; type: in vivo, mice
Protocol: CD45.1^+45.2^+-recipient mice were given a split dose of 550 Rads (x-ray source, RS2000-RAD source technologies, inc.) 4 hours apart for a lethal total dose of 1100 Rads. WBM (5×10^5) cells from 3AC (CD45.2) treated mice were competed with WBM cells from vehicle (CD45.1) treated mice and injected retro-orbitally into CD45.1^+45.2^+ hosts. PBMC multi-lineage reconstitution was evaluated every month post-transplant for 4 months. Transplanted mice were euthanized and serially transplanted to determine self-renewal capacity. Repopulating Units (RU) determination was previously decribed.^15 Briefly, RU=(C×CD45.2 repopulation %)/(100−CD45.2 repopulation %) where C=10^5 competitor cells.^6
Normal Repopulating units (RU) are calculated based on total number of competitor cells transplanted. Due to the expansion in the bone marrow compartment of SHIPi treated mice, we calculated the absolute RU numbers based on RU output determined by CRU assay and total BM cellularity. Total BM cellularity was determined via hemacytometer (BioRAD, TC20 cell counter) based on a total BM cells obtained from an intact set of femurs and tibias for each mouse in the study. Absolute RU=(Total BM cellularity/5×10^5)×RU.

[4] = tested on: PDGFRα+CD51+ MSC; assay: In vivo MSC immunophenotyping by flow cytometry; parameters: species or system mice; settings: 3AC 26.5 mg/kg i.p. 5 days, vs vehicle
Protocol: PDGFRα^+CD51^+ MSC were detected using methods and reagents as described by Iyer et al.^8 Femurs, tibias, humeri, ulnas, radii, and pelvis were dissected; the bone fragments were cleaned, cut into tiny pieces, and then crushed using a mortar and pestle. The bone chips were then washed several times in HBSS supplemented with 2% heat-inactivated FBS (HBSS/2% HI-FBS) and HBSS only, and then spun at 350×g for 5 mins. The pellet was re-suspended in 3 mg/mL type I collagenase (Worthington) and 15 μg/mL DNAase (Sigma, St. Louis, Mo.) dissolved in HBSS and incubated at 37° C. for 30 min at 110 rpm, this step was repeated twice. Following incubation, mononuclear cells were obtained using a Ficoll gradient ([…] and Histopaque-1077; Sigma, St. Louis, Mo.), and were then used for further analysis. Cells were stained with antibodies as described in Iyer et al.^8

[5] = tested on: G-CSF; assay: G-CSF ELISA of serum of treated mice; type: in vivo; settings: 3AC 26.5 mg/kg i.p. 5 days, vs vehicle
Protocol: Peripheral blood was collected in serum separation microvette tubes (SARSTEDT). Tubes were kept at room temperature for 2 hrs. and then spun at 2000×g for 20 min as per manufacturers recommendation. Serum levels of G-CSF in treated mice were determined using a Mouse G-CSF Quantikine Elisa kit (R&D systems).

[6] = tested on: radiation-induced myeloablation; assay: Lymphocyte and WBC recovery in radiation induced bone marrow failure model; type: in vivo, C57BL/6J mice; settings: 550 Rads sub-lethal irradiation, 3AC daily 7 days i.p., vs vehicle
Protocol: We utilized a radiation-induced hematological myeblation to create our bone marrow failure model. C57BL/6J mice (8-12 week) (The Jackson Laboratory, Bar Harbor, Me.) were sub-lethally irradiated at 550 Rads. 3AC and vehicle were administered daily for 7 days post irradiation via IP injection. PB was collected by submandibular bleeding on days 8, 15, 22 and 32 and analyzed for WBC and lymphocyte counts [Thousands per microliter (K/uL)] on a Hemavet 950S (Drew Scientific, Waterbury, Conn., USA) analysis.

[7] = cited from earlier work
[8] = tested on: radiation-induced myeloablation; settings: post radiation-induced myeloablation; cited from earlier work
[9] = transient SHIPi treatment; cited from earlier work
[10] = 3AC 26.5 mg/kg i.p. 5 days, BM, vs vehicle
[11] = 3AC 26.5 mg/kg i.p. 5 days, vs vehicle

CC(C)CCC[C@@H](C)[C@@H]1CC[C@H]2[C@@H]3CCC4C[C@H](N)CC[C@]4(C)[C@H]3CC[C@@]21C (stereo partly drawn) [3AC]
absolute number of LSK cells [1, 10]: significantly increases
frequency of LSK cells [1, 10]: significantly increases
CXCR4 surface expression on expanded HSC pool ([1]; 3AC 26.5 mg/kg i.p. 5 days, MFI by FACS): does not cause a reduction
frequency of LT-HSC (LSKFlk2-CD34-) in BM [1, 11]: increases the frequency
frequency of MPP (LSKFlk2+CD34+) in BM [1, 11]: increases the frequency
frequency of ST-HSC (LSKFlk2-CD34+) in BM [1, 11]: increases the frequency
expansion in BM of cells with a primitive HSC phenotype ([1]; 3AC 26.5 mg/kg i.p. 5 days, frequency combined with BM cellularity): 3-4 fold
bone marrow cellularity (BMC) ([1]; 3AC 26.5 mg/kg i.p. every 24 hrs for 5 days, analysis day 6, vs vehicle): significant increase
frequency of LT-HSC in S and G2 phases of the cell cycle [2]: significantly greater frequency
CRU frequency ([3]; BM of 3AC vs vehicle donors): increases
increase in cells with HSC capacity (absolute CRU numbers) ([3]; after accounting for total BM cellularity, vs vehicle): ~6 fold
global blood cell reconstitution by BM cells of treated donors ([3]; primary CRU, 3AC-treated vs vehicle-treated donors, monthly for 4 months post-transplant): significantly greater
lineage reconstitution (B, T, NK, myeloid) ([3]; primary CRU, entire post-transplant period): greater proportion of all major blood cell lineages analyzed
bias or impairment in lineage output after serial transfer ([3]; secondary CRU hosts, 1 month post-transplant): did not observe a significant bias or impairment
repopulation of all major lineages in secondary hosts ([3]; secondary CRU, vs competing vehicle BM): significantly higher
Pα+51+ MSC compartment size in BM [4]: approximate doubling
G-CSF production in vivo [5]: super-induces
G-CSF production in vivo ([5]; listed as SHIPi): increases
recovery of lymphocyte numbers [6]: significantly improved recovery
recovery of white blood cell (WBC) numbers [6]: significantly improved recovery
aqueous solubility [7]: poor aqueous solubility
recovery of neutrophil numbers [8]: more rapid recovery
recovery of platelet numbers [8]: more rapid recovery
development of pulmonary and gastrointestinal inflammation [9]: does not induce
